# Measurements taken from US8735584B2 (Merck Patent GmbH, priority 2008, dated 2014).
# Target: T1, GST-Aurora A (Homo sapiens, UniProt O14965)
# T1 construct: N-terminal GST fusion with full length Aurora A (1-403 amino acids); purchased Carna Biosciences 05-101
# T1 sequence (O14965 1-403): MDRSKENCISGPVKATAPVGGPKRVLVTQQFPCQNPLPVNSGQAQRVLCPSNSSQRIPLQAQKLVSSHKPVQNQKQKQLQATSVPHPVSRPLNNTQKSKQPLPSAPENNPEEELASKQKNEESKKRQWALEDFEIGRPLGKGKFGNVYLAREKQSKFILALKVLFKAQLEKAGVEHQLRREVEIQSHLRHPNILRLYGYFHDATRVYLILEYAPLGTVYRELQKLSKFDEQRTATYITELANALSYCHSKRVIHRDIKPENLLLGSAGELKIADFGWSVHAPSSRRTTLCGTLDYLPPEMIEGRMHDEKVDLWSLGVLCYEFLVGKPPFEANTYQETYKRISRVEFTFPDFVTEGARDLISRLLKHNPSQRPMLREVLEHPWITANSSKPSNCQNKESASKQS
# Test: Aurora A IC50, Caliper LC3000 mobility shift assay
# Assay type: biochemical
# Settings: LC3000 method; 15 uM ATP (the KM value); read-out: Aurora Kinase A Activity (IC50)
# Method in brief: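 Readout: percent conversion of FITC-LRRASLG (1 uM) to phosphopeptide, resolved electrophoretically on a Caliper LC3000, fitted against inhibitor concentration for IC50. Reaction: N-terminal GST full-length Aurora A, ATP at its KM (15 uM), pH 7.5 HEPES with MgCl2/DTT, 25 C for 90 min.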
row,SMILES,IC50
1,"COc1cc2c(=O)[nH]c3nccc(Nc4ccc(NC(=O)c5ccccc5)cc4)c3c2cc1OC [Compound 409, N-[4-(8,9-Dimethoxy-6-oxo-5,6-dihydro-benzo[c][1,8]naphthyridin-1-ylamino)-phenyl]-benzamide]",< 11 nM
2,"O=C(Nc1ccc(Nc2ccnc3[nH]c(=O)c4ccccc4c23)cn1)c1ccccc1 [Compound 324, N-(5-(6-Oxo-5,6-dihydrobenzo[c][1,8]naphthyridin-1-ylamino)pyridin-2-yl)benzamide]",11 to 100 nM
3,"O=C(Nc1ccc(Nc2ccnc3[nH]c(=O)c4ccc(F)cc4c23)cc1)c1ccc(F)c(F)c1 [Compound 417, 3,4-Difluoro-N-[4-(9-fluoro-6-oxo-5,6-dihydro-benzo[c][1,8]naphthyridin-1-ylamino)-phenyl]-benzamide]",< 11 nM
4,"CN(C)CCNC(=O)c1ccc2c(=O)[nH]c3nccc(Nc4ccc(NC(=O)c5ccc(F)c(F)c5)cc4)c3c2c1 [Compound 298, 1-(4-(3,4-Difluorobenzamido)phenylamino)-N-(2-(dimethylamino)ethyl)-6-oxo-5,6-dihydrobenzo[c][1,8]naphthyridine-9-carboxamide]",< 11 nM
5,"CN(C)CCNC(=O)c1ccc2c(=O)[nH]c3nccc(Cl)c3c2c1 [Compound 296, 1-Chloro-N-(2-(dimethylamino)ethyl)-6-oxo-5,6-dihydrobenzo[c][1,8]naphthyridine-9-carboxamide]",> 100 nM
6,"O=c1[nH]c2nccc(Nc3ccc(OCc4ccccc4)cc3)c2c2ccccc12 [Compound 329, 1-(4-(Benzyloxy)phenylamino)benzo[c][1,8]naphthyridin-6(5H)-one]",11 to 100 nM
7,"O=C(Nc1ccc(Nc2ccnc3[nH]c(=O)c4ccccc4c23)cc1)c1c(Cl)cccc1Cl [Compound 395, 2,6-Dichloro-N-[4-(6-oxo-5,6-dihydro-benzo[c][1,8]naphthyridin-1-ylamino)-phenyl]-benzamide]",< 11 nM
8,"CN(C)CCN(C)Cc1ccc2c(=O)[nH]c3nccc(Nc4ccc(NC(=O)c5ccccc5)cc4)c3c2c1 [Compound 292, N-(4-(9-(((2-(Dimethylamino)ethyl)(methyl)amino)methyl)-6-oxo-5,6-dihydrobenzo[c][1,8]naphthyridin-1-ylamino)phenyl)benzamide]",11 to 100 nM
9,"O=C(Nc1ccc(Nc2ccnc3[nH]c(=O)c4ccccc4c23)cc1)c1ccc(C(F)(F)F)cc1F [Compound 397, 2-Fluoro-N-[4-(6-oxo-5,6-dihydro-benzo[c][1,8]naphthyridin-1-ylamino)-phenyl]-4-trifluoromethyl-benzamide]",< 11 nM
10,"CN1CCN(Cc2ccccc2C(=O)Nc2ccc(Nc3ccnc4[nH]c(=O)c5ccccc5c34)cc2)CC1 [Compound 355, 2-((4-Methylpiperazin-1-yl)methyl)-N-(4-(6-oxo-5,6-dihydrobenzo[c][1,8]naphthyridin-1-ylamino)phenyl)benzamide]",> 100 nM
11,"O=C(Nc1ccc(Nc2ccnc3[nH]c(=O)c4ccccc4c23)cc1)C(F)(F)F [Compound 348, 2,2,2-Trifluoro-N-(4-(6-oxo-5,6-dihydrobenzo[c][1,8]naphthyridin-1-ylamino)phenyl)acetamide]",> 100 nM
12,"O=C(CC(F)(F)F)Nc1ccc(Nc2ccnc3[nH]c(=O)c4ccccc4c23)cc1 [Compound 349, 3,3,3-Trifluoro-N-(4-(6-oxo-5,6-dihydrobenzo[c][1,8]naphthyridin-1-ylamino)phenyl)propanamide]",< 11 nM
13,"O=C(CN1CCC(Nc2ccnc3[nH]c(=O)c4ccccc4c23)CC1)Nc1ccc(F)cc1 [Compound 374, N-(4-Fluorophenyl)-2-(4-(6-oxo-5,6-dihydrobenzo[c][1,8]naphthyridin-1-ylamino)piperidin-1-yl)acetamide]",11 to 100 nM
14,"CN1CCN(c2ccc3c(c2)c(=O)[nH]c2nccc(Nc4ccc(NC(=O)c5ccccc5)cc4)c23)CC1 [Compound 276, N-(4-(8-(4-Methylpiperazin-1-yl)-6-oxo-5,6-dihydrobenzo[c][1,8]naphthyridin-1-ylamino)phenyl)benzamide]",11 to 100 nM
15,"O=C(c1ccc(F)c(F)c1)N1CCC(CNc2ccnc3[nH]c(=O)c4ccccc4c23)CC1 [Compound 408, 1-{[1-(3,4-Difluoro-benzoyl)-piperidin-4-ylmethyl]-amino}-5H-benzo[c][1,8]naphthyridin-6-one]",> 100 nM
16,"O=C(NCc1ccc(Nc2ccnc3[nH]c(=O)c4ccccc4c23)cc1)c1ccccc1 [Compound 327, N-(4-(6-oxo-5,6-dihydrobenzo[c][1,8]naphthyridin-1-ylamino)benzyl)benzamide]",11 to 100 nM
17,"CN1CCC(C(=O)Nc2ccc(Nc3ccnc4[nH]c(=O)c5ccccc5c34)cc2)CC1 [Compound 346, 1-Methyl-N-(4-(6-oxo-5,6-dihydrobenzo[c][1,8]naphthyridin-1-ylamino)phenyl)piperidine-4-carboxamide]",> 100 nM
18,"O=C(Nc1ccc(Nc2ccnc3[nH]c(=O)c4ccc(F)cc4c23)cc1)c1ccc(F)cc1 [Compound 419, 4-Fluoro-N-[4-(9-fluoro-6-oxo-5,6-dihydro-benzo[c][1,8]naphthyridin-1-ylamino)-phenyl]-benzamide]",< 11 nM

# Now from value to molecule:
row,IC50,SMILES
1,> 100 nM,"O=C(c1ccc(F)cc1C(F)(F)F)N1CCOc2cc(Oc3ccnc4[nH]c(=O)c5ccccc5c34)ccc21 [Example 219, 1-[4-(4-Fluoro-2-trifluoromethyl-benzoyl)-3,4-dihydro-2H-benzo[1,4]oxazin-7-yloxy]-5H-benzo[c][1,8]naphthyridin-6-one]"
2,> 100 nM,O=C(Cn1cc(Nc2ccnc3[nH]c(=O)c4ccccc4c23)cn1)Nc1ccc(F)cc1 [Compound 430]
3,> 100 nM,"Cc1cccc(CNc2ccc3c(=O)[nH]c4ncccc4c3c2)c1 [Example 47, 9-(3-Methyl-benzylamino)-5H-benzo[c][1,8]naphthyridin-6-one]"
4,> 100 nM,"O=c1[nH]c2ncccc2c2cc(NCc3ccc4c(c3)OCO4)ccc12 [Compound 476, 9-(Benzo[d][1,3]dioxol-5-ylmethylamino)benzo[c][1,8]naphthyridin-6(5H)-one]"
5,> 100 nM,"Clc1nc2ncccc2c2cc(NCc3ccccc3)ccc12 [Example 53, Benzyl-(6-chloro-benzo[c][1,8]naphthyridin-9-yl)-amine]"
6,11 to 100 nM,"CN(C)CCCNC(=O)c1cccc2c1c(=O)[nH]c1nccc(Nc3ccc(NC(=O)c4ccccc4)cc3)c12 [Compound 436, 1-(4-Benzoylamino-phenylamino)-6-oxo-5,6-dihydro-benzo[c][1,8]naphthyridine-7-carboxylic acid (3-dimethylamino-propyl)-amide]"
7,< 11 nM,"O=C(Nc1ccc(Nc2ccnc3[nH]c(=O)c4c(C(=O)NCCN5CCOCC5)cccc4c23)cc1)c1ccc(F)cc1C(F)(F)F [Compound 442, 1-[4-(4-Fluoro-2-trifluoromethyl-benzoylamino)-phenylamino]-6-oxo-5,6-dihydro-benzo[c][1,8]naphthyridine-7-carboxylic acid (2-morpholin-4-yl-ethyl)-amide]"
8,< 11 nM,"O=C(Nc1ccc(Nc2ccnc3[nH]c(=O)c4ccc(F)cc4c23)c(F)c1)c1ccc(F)cc1C(F)(F)F [Compound 420, 4-Fluoro-N-[3-fluoro-4-(9-fluoro-6-oxo-5,6-dihydro-benzo[c][1,8]naphthyridin-1-ylamino)-phenyl]-2-trifluoromethyl-benzamide]"
